{
  "source": "patent US8013006B2",
  "key": {"HCV replicon": {"test_system": "HCV replicon", "test": "microbe, parasite or virus in culture", "format": "cell-based", "settings": "Replicon IC50 values are determined by firefly luciferase signal; bicistronic replicon, 2 days; read-out: Replicon IC5Os"}, "wild-type poliovirus": {"test_system": "wild-type poliovirus", "format": "cell-based", "settings": "Hela cells, MOI 0.1, one day; for WT-PV CPE (1 μM)*: 1 μM compound; for WT-PV CPE (10 μM)*: 10 μM compound; for WT-PV CPE (100 μM) *: 100 μM compound"}, "[1]": {"test_system": "cap-dependent translation", "test": "Western blot of Fluc reporter protein in pLuc cells", "format": "cell-based, human", "settings": "20 hours"}},
  "data": [
    {"smiles": "COc1ccc(-n2cc(C#N)c3ccc(OC)cc32)cc1", "note": "[Compound 4]", "values": [
      {"measurement": "IC50", "setting": "HCV replicon", "result": "> 2000", "unit": "nM"},
      {"measurement": "WT-PV CPE (1 μM)*", "setting": "wild-type poliovirus", "result": 1},
      {"measurement": "WT-PV CPE (10 μM)*", "setting": "wild-type poliovirus", "result": 2},
      {"measurement": "WT-PV CPE (100 μM) *", "setting": "wild-type poliovirus", "result": 3}
    ]},
    {"smiles": "CCn1cc(C#N)c2ccc(OC(C)C)cc21", "note": "[Compound 10]", "values": [
      {"measurement": "IC50", "setting": "HCV replicon", "result": "> 2000", "unit": "nM"},
      {"measurement": "WT-PV CPE (1 μM)*", "setting": "wild-type poliovirus", "result": 2},
      {"measurement": "WT-PV CPE (10 μM)*", "setting": "wild-type poliovirus", "result": 2},
      {"measurement": "WT-PV CPE (100 μM) *", "setting": "wild-type poliovirus", "result": 3}
    ]},
    {"smiles": "CCn1c(-c2ccc(OC)cc2)c(C#N)c2ccc(OC)cc21", "note": "[Compound 19]", "values": [
      {"measurement": "IC50", "setting": "HCV replicon", "result": "> 2000", "unit": "nM"},
      {"measurement": "WT-PV CPE (1 μM)*", "setting": "wild-type poliovirus", "result": 1},
      {"measurement": "WT-PV CPE (10 μM)*", "setting": "wild-type poliovirus", "result": 2},
      {"measurement": "WT-PV CPE (100 μM) *", "setting": "wild-type poliovirus", "result": 3}
    ]},
    {"smiles": "COc1ccc2c(C#N)c(C)n(-c3ccc4c(c3)OCO4)c2c1", "note": "[Compound 24]", "values": [
      {"measurement": "IC50", "setting": "HCV replicon", "result": "500 to 2000", "unit": "nM"},
      {"measurement": "WT-PV CPE (1 μM)*", "setting": "wild-type poliovirus", "result": 2},
      {"measurement": "WT-PV CPE (10 μM)*", "setting": "wild-type poliovirus", "result": 2},
      {"measurement": "WT-PV CPE (100 μM) *", "setting": "wild-type poliovirus", "result": 3}
    ]},
    {"smiles": "COc1ccc(C[C@H](N)C(=O)N[C@H]2[C@@H](O)[C@H](n3cnc4c(N(C)C)ncnc43)O[C@@H]2CO)cc1", "note": "[puromycin]", "values": [
      {"measurement": "luciferase reporter protein level (cap-dependent), Western blot", "setting": "[1]", "result": "inhibited"}
    ]}
  ]
}
